{
  "source": "ChEMBL document CHEMBL2151032",
  "about": "“Structural and enzymatic analyses reveal the binding mode of a novel series of Francisella tularensis enoyl reductase (FabI) inhibitors” (J Med Chem, 2012)",
  "target": "T1, Enoyl-[acyl-carrier-protein] reductase [NADH] (Francisella tularensis subsp. tularensis (strain SCHU S4 / Schu 4), UniProt Q5NGQ3)",
  "T1 sequence (Q5NGQ3 whole entry)": "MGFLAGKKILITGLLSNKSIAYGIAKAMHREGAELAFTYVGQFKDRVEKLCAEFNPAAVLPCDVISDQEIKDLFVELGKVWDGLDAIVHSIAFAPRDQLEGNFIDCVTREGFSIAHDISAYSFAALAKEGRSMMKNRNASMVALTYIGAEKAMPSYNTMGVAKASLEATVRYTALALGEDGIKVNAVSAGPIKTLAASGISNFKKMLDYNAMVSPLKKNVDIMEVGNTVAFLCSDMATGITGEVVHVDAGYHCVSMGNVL",
  "data": [
    {"smiles": "Cc1cc2ncn(Cc3ccc(Cl)c(Cl)c3)c2cc1C", "values": [
      {"measurement": "Ki", "result": 360, "unit": "nM"}
    ]}
  ]
}
